Like-named read-outs stand apart in the source and are kept apart here.
Columns and labels:
[1] = Processability test (stickiness to tablet punch); assay type: physicochemical; conditions: amount adhering to tablet punch; for Stickiness: Amlodipine(μg)/cm^2 (tablet): average from slope over runs of 50-300 tablets
Procedure: Using a conventional tablet making machinery, fifty tablets containing calcium sulphate dihydrate, microcrystalline cellulose and amlodipine nicotinate dihydrate (47.5:47.5:5) were produced. The material adhering to the tablet punch was then extracted using methanol and the amount was measured spectrometrically. This procedure was then repeated for runs of 100, 150, […], 250 and 300 tablets. After each run the amount of material adhering to the tablet punch was measured in the same process as above. The values were plotted and an average value was calculated from the slope of the line produced. The same procedure was then repeated for amlodipine besylate. The amount of amlodipine measured as adhering to the tablet punch is shown in Table 2 for amlodipine nicotinate dihydrate with relative to amlodipine besylate.

Hygroscopicity test = assay type: physicochemical; conditions: 60% relative humidity, 50° C., 14 days
Procedure: 1.0 g of amlodipine besylate prepared in accordance with U.S. Pat. No. 4,879,303 and 1.0 g of amlodipine nicotinate dihydrate obtained in Example 1 were exposed to 60% relative humidity at 50° C. for 14 days.

Photostability = assay type: physicochemical; conditions: 25-30° C., 2 weeks, incandescent lamp (220V, 100 W) 30 cm above
Procedure: 1.0 g of amlodipine besylate prepared in accordance with U.S. Pat. No. 4,879,303 and 1.0 g of amlodipine nicotinate dihydrate obtained in Example 1, which were placed in glass schales (100×20 mm), were exposed at 25-30° C. for 2 weeks under an incandescent lamp (220V, 100 W) that was placed at 30 cm above the samples. […] FIGS. 6A and 6B show H-NMR charts of amlodipine besylate before and after the photostability test, respectively. The peaks on NMR of amlodipine besylate are as follows: […]

[2] = system: spontaneously hypertensive rats (SHRs); assay: In vivo anti-hypertensive activity, systolic blood pressure by tail-cuff method; design: species or system rat; conditions: SHR; for Maximal anti-hypertensive effect (change of systolic blood pressure) / Intensity (maximal effect of amlodipine nicotinate to maximal effect of amlodipine besylate) / ED20 (amount necessary for 20% decrease in the blood pressure) / Intensity (reverse ratio of ED20 values relative to amlodipine besylate): oral; for Maximal anti-hypertensive effect (change of systolic blood pressure): mean % ± S.E.M.
Procedure: Cardiovascular effects, i.e., in vivo anti-hypertensive activities, were measured for amlodipine besylate prepared in accordance with U.S. Pat. No. 4,879,303 and amlodipine nicotinate prepared in Example 1, using spontaneously hypertensive rats (SHRs), by Korea Research Institute of Chemical Technology (Screening Center, #100, Jang-dong, Yuseong-gu, Daejeon).
Male SHRs (Charles Rever Co., Japan) aged 13-14 weeks were used. Before evaluation, the SHRs were accustomed in a clean breeding chamber under conditions of a temperature of 22.5±1° C., a relative humidity of 55±5% and a lighting time of 12 hour intervals.
The SHRs having a systolic blood pressure over 170 mmHg were divided into 7 groups, i.e., Test Groups 1 to 3 (for amlodipine besylate), Test Groups 4 to 6 (for amlodipine nicotinate) and a Control Group. Each Test Group and Control Group consisted of 6-8 SHRs (n=6-8).
The test compounds were dissolved in distilled water to prepare test solutions immediately prior to administration. The test solutions of amlodipine besylate and amlodipine nicotinate were prepared by dissolving 1, 3, and 10 mg/kg in distilled water (0.5 ml/100 g rat), respectively, and then administered orally to each Test Group. The vehicle (distilled water) was administered to Control Group.
The systolic blood pressure was measured with Multichannel 8000 (TSE Co., Germany), using a tail-cuff method. That is, the systolic blood pressures of a tail artery of each rat were measured before the administration of the test solutions and after 2, 4, 6, 8, 10, and 24 hours from the administration thereof. In order to facilitate the measurement of blood pressures, the test animals of each Group underwent warming at 37° C. for about 10 minutes before the measurements.
The results of the foregoing test were expressed by a mean percentage and standard error (mean %±S.E.M.). Statistical analysis of the test results were conducted by an unpaired t-test and ANOVA (one-way analysis of variance) with Sigma Stat program (Jandel Co., USA). The secondary evaluations were conducted by a Dunnett's multiple comparison test.

[3] = Chemical stability (stability test under stress condition); assay type: physicochemical; conditions: tablets in sealed vials, 50° C., 60% relative humidity, three weeks, TLC
Procedure: In order to assess the chemical stability, amlodipine besylate and amlodipine nicotinate were blended in a powder vehicle and formed into tablets. The vehicle for tablets comprised microcrystalline cellulose and anhydrous dibasic calcium phosphate in 50:50. The tablets were then stored in sealed vials at 50° C. and at 60% relative humidity for three weeks.
FIGS. 4A and 4B show H-NMR charts of amlodipine besylate before and after the stability test, respectively, and FIGS. 5A and 5B show H-NMR charts of amlodipine nicotinate before and after the stability test, respectively. The peaks on NMR of amlodipine besylate are as follows: […]

[4] = Solubility measurement (water solubility and pH at saturation); assay type: physicochemical; conditions: distilled water, room temperature; for solubility: ultrasonic waves, maximal solubilized amount
Procedure: Water solubilities were measured for amlodipine besylate prepared in accordance with U.S. Pat. No. 4,879,303 and amlodipine nicotinate obtained in Example 1. By using 50 ml of distilled water and ultrasonic waves, maximal solubilized amounts were measured at a room temperature and pHs at saturation were measured using Fischer Scientific Accument (PH meter 15).

[5] = 1 mg/kg, listed as Nicotinate salt, dihydrate
[6] = listed as amlodipine nicotinate, dihydrate

## CCOC(=O)C1=C(COCCN)NC(C)=C(C(=O)OC)C1c1ccccc1Cl (centres unmarked) [Amlodipine nicotinate, amlodipine nicotinate dihydrate]
[1]; dihydrate
  Stickiness: Amlodipine(μg)/cm^2 (tablet): 0.44 μg/cm^2 (tablet)
  Stickiness relative to besylate: 36.7%
Hygroscopicity test; dihydrate
  hygroscopicity (state after exposure): remained intact
Photostability; dihydrate
  color change after photostability test: no color change
[2]; [5]
  Maximal anti-hypertensive effect (change of systolic blood pressure): −10.20 ± 2.71%
  Intensity (maximal effect of amlodipine nicotinate to maximal effect of amlodipine besylate): 1.46
[2]; 1 mg/kg, dihydrate
  Intensity (maximal effect of amlodipine nicotinate to maximal effect of amlodipine besylate): about 1.46
[2]; 3 mg/kg
  Intensity (maximal effect of amlodipine nicotinate to maximal effect of amlodipine besylate): 1.07
[2]; 3 mg/kg, listed as Nicotinate salt, dihydrate
  Maximal anti-hypertensive effect (change of systolic blood pressure): −26.8 ± 3.22%
[2]; 10 mg/kg
  Intensity (maximal effect of amlodipine nicotinate to maximal effect of amlodipine besylate): 1.06
[2]; 10 mg/kg, listed as Nicotinate salt, dihydrate
  Maximal anti-hypertensive effect (change of systolic blood pressure): −40.9 ± 2.08%
[2]; dihydrate
  ED20 (amount necessary for 20% decrease in the blood pressure): 2.19 ± 0.57 mg/kg
  Intensity (reverse ratio of ED20 values relative to amlodipine besylate): 1.13
[2]; [6]
  ED20 (amount necessary for 20% decrease in the blood pressure): 2.19 ± 0.57 mg/kg
  Intensity (reverse ratio of ED20 values relative to amlodipine besylate): about 1.13
[3]; dihydrate
  breakdown products after stability test: no breakdown product
[4]; dihydrate
  pH at saturation: 7.2
  solubility: 6800 µg/mL

## CCOC(=O)C1=C(COCCN)NC(C)=C(C(=O)OC)C1c1ccccc1Cl (centres unmarked) [Amlodipine besylate, amlodipine besylate, reference compound]
[1]
  Stickiness relative to besylate: 100.0%
  Stickiness: Amlodipine(μg)/cm^2 (tablet): 1.20 μg/cm^2 (tablet)
Hygroscopicity test
  hygroscopicity (state after exposure): remained anhydrous
Photostability
  color change after photostability test: discolored to yellow
[2]
  ED20 (amount necessary for 20% decrease in the blood pressure): 2.48 ± 0.46 mg/kg
  Intensity (reverse ratio of ED20 values relative to amlodipine besylate): 1.00
[2]; 1 mg/kg, listed as Besylate salt
  Maximal anti-hypertensive effect (change of systolic blood pressure): −7.0 ± 1.66%
[2]; 3 mg/kg, listed as Besylate salt
  Maximal anti-hypertensive effect (change of systolic blood pressure): −25.0 ± 1.98%
[2]; 10 mg/kg, listed as Besylate salt
  Maximal anti-hypertensive effect (change of systolic blood pressure): −38.7 ± 2.18%
[2]; oral, 1, 3 and 10 mg/kg
  effect on blood pressure: dose-dependently reduced blood pressures
[2]; listed as amlodipine besylate
  ED20 (amount necessary for 20% decrease in the blood pressure): 2.48 ± 0.46 mg/kg
[3]
  breakdown products after stability test: breakdown products
[4]
  pH at saturation: 6.6
[4]; water, thermodynamic from solid, read-out: Solubility
  solubility: 4600 µg/mL
